Among the data in patent publication US6982348B2, “Aminoethanol derivatives” (Takeda Pharmaceutical Company Limited, priority 2001, dated 2006) are melting point values, retold here.

`COc1ccc([C@H](O)[C@@H](Cc2cccc(OC(F)(F)C(F)F)c2)NC(=O)c2cccc3c2C=CCCC3)cc1` (racemic) [Example 242, N-{(1RS,2SR)-2-hydroxy-2-(4-methoxyphenyl)-1-[3-(1,1,2,2-tetrafluoroethoxy)benzyl]ethyl}-6,7-dihydro-5H-benzo[a][7]annulene-1-carboxamide]: the melting point was 151 to 152 °C. As for `O=C(CCc1ccccc1)N[C@H](Cc1ccc(C(F)(F)F)cc1)[C@@H](O)c1cccc(F)c1` (racemic) [Example 178, N-((1RS,2SR)-2-(3-fluorophenyl)-2-hydroxy-1-((4-(trifluoromethyl)phenyl)methyl)ethyl)-3-phenylpropanamide], the figure is 151 to 152 °C. In the case of `O=C(N[C@H](Cc1cccc(OC(F)(F)C(F)F)c1)[C@@H](O)c1ccc(-c2ccc(Cl)cc2)cc1)c1cccc2c1C=CCCC2` (racemic) [Example 294, N-[(1RS,2SR)-2-(4′-chloro[1,1′-biphenyl]-4-yl)-2-hydroxy-1-[3-(1,1,2,2-tetrafluoroethoxy)benzyl]ethyl]-6,7-dihydro-5H-benzo[a]cycloheptene-1-carboxamide], the melting point was in the range of 167 to 168 °C.

For `COc1ccc(C[C@@H](NC(=O)c2ccc(F)c3ccccc23)[C@@H](O)c2ccc(F)cc2)cc1` (racemic) [Example 149, 4-fluoro-N-((1RS,2SR)-2-(4-fluorophenyl)-2-hydroxy-1-((4-(methyloxy)phenyl)methyl)ethyl)-1-naphthalenecarboxamide], the melting point lay within 210 to 211 °C. Then `O=C(N[C@H](Cc1ccc(C(F)(F)F)cc1)[C@@H](O)c1ccc(Cl)cc1)c1ccc(F)c2ccccc12` (racemic) [Example 194, N-[(1RS,2SR)-2-(4-chlorophenyl)-2-hydroxy-1-[4-(trifluoromethyl)benzyl]ethyl]-4-fluoronaphthalene-1-carboxamide], with 203 to 204 °C; and `O=C(N[C@H](Cc1ccc(CC(F)(F)C(F)(F)F)cc1)[C@@H](O)c1cccc(Cl)c1)c1ccc(F)c2ccccc12` (racemic) [Example 373, N-[(1RS,2SR)-1-[4-(2,2,3,3,3-pentafluoropropyl)benzyl]-2-(3-chlorophenyl)-2-hydroxyethyl]-4-fluoro-1-naphthamide], with 191 to 192 °C. As for `O=C1CC(C(=O)N[C@H](Cc2ccc(C(F)(F)F)cc2)[C@@H](O)c2ccc(F)cc2)c2ccccc21` (mixture of isomers) [Example 53, N-((1RS,2SR)-2-(4-fluorophenyl)-2-hydroxy-1-((4-(trifluoromethyl)phenyl)methyl)ethyl)-3-oxo-2,3-dihydro-1H-indene-1-carboxamide], the figure is 237 to 238 °C; as for `O=C(NC(Cc1ccc(C(F)(F)F)cc1)C(O)c1ccc(F)cc1)c1ccc(Cl)cc1` (racemic) [Example 9, 4-chloro-N-[2-(4-fluorophenyl)-2-hydroxy-1-[[4-(trifluoromethyl)phenyl]methyl]ethyl]benzamide], 170 to 180 °C. `COc1ccc(-c2ccc([C@H](O)[C@@H](Cc3cccc(OC(F)(F)C(F)F)c3)NC(=O)c3cccc4c3C=CCCC4)cc2)cc1` (racemic) [Example 297, N-[(1RS,2SR)-2-hydroxy-2-(4′-methoxy[1,1′-biphenyl]-4-yl)-1-[3-(1,1,2,2-tetrafluoroethoxy)benzyl]ethyl]-6,7-dihydro-5H-benzo[a]cycloheptene-1-carboxamide] came in with a melting point of 162 to 163 °C. As for `O=C(N[C@H](Cc1cccc(O)c1)[C@@H](O)c1ccc(F)cc1)c1ccc(F)c2ccccc12` (racemic) [Example 286, 4-fluoro-N-[(1RS,2SR)-2-(4-fluorophenyl)-2-hydroxy-1-(3-hydroxybenzyl)ethyl]-1-naphthamide], the melting point fell in the range of 179 to 180 °C. On to `Cc1ccc(C(=O)NC(Cc2ccc(C(F)(F)F)cc2)C(O)c2ccc(F)cc2)c2ccccc12` (racemic) [Example 2, N-(2-(4-fluorophenyl)-2-hydroxy-1-((4-(trifluoromethyl)phenyl)methyl)ethyl)-4-methyl-1-naphthalenecarboxamide], for which the melting point was 149 to 150 °C.
